Results on 41 compounds are retold here after ChEMBL document CHEMBL1135944, “Identification of potent and selective oxytocin antagonists. Part 1: indole and benzofuran derivatives” (Bioorg Med Chem Lett, 2002).

A short description of series [1]: The pharmacokinetic parameter, clearance was reported in dog after intravenous administration. The format is ADME, organism-based, Canis lupus familiaris. To be noted: in vivo.
The target in series [2] is T1, Oxytocin receptor (Homo sapiens, UniProt P30559).
T1 sequence (P30559 whole entry): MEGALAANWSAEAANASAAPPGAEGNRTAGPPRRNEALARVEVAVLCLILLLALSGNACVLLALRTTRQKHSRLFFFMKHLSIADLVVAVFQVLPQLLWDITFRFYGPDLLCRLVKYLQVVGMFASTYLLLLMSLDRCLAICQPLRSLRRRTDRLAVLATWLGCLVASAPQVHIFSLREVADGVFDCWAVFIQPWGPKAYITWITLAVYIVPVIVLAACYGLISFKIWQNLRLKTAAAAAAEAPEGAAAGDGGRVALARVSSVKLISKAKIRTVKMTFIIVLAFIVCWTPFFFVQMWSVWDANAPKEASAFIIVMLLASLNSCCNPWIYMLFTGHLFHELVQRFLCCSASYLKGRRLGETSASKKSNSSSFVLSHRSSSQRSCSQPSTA
Briefly: Ability to displace [3H]oxytocin from human OT receptor (hOT).

Series [3] in a line: Bioavailability in dog. In kind it is ADME, organism-based, Canis lupus familiaris. To be noted: in vivo.
Series [4] concerns the target T1, Oxytocin receptor. The experiment in a line: Compound was tested for its ability to displace [3H]oxytocin from human Oxytocin receptor.

The clearance is the volume of plasma or blood freed of the substance per unit of time. One may read the Ki as the dissociation constant of the complex between target and ligand, obtained from inhibition or displacement. Higher therefore signals weaker binding. As for `CC(=O)NCc1cc2cc(C(=O)N3CCC(N4C(=O)OCc5ccccc54)CC3)ccc2o1`, the clearance in series [1] came out at 8 mL/min/kg. Besides, the Ki in series [2] was 63.1 nM. For `CN1CCC(=O)N(CC(=O)NCc2cc3cc(C(=O)N4CCC(N5C(=O)OCc6ccccc65)CC4)ccc3o2)C1=O`, in series [1], the clearance is 27 mL/min/kg. In addition, the affinity in series [2] corresponds to a Ki of 3.98 nM.

For the compound `COc1cc(OC2CCN(C(C)=O)CC2)ccc1C(=O)N1CCC(N2C(=O)OCc3ccccc32)CC1`, the affinity in series [2] corresponds to a Ki of 10 nM.

Take `CN(CCn1cnc2cc(C(=O)N3CCC(N4C(=O)OCc5ccccc54)CC3)ccc21)S(C)(=O)=O`: in series [2], the Ki is 398 nM.

In series [2], `Cc1nc(-c2cccs2)ncc1C(=O)N1CCC(N2C(=O)OCc3ccccc32)CC1` gave a Ki of 158 nM. Compared with the last compound, the Ki is about 2.5-fold lower. In series [1], `O=C(Cc1cccnc1)NCc1cc2cc(C(=O)N3CCC(N4C(=O)OCc5ccccc54)CC3)ccc2o1` returned a clearance of 49 mL/min/kg. In series [2], the Ki was 25.1 nM.

The compound `Cn1ccc2cc(C(=O)N3CCC(N4C(=O)OCc5ccccc54)CC3)ccc21` gave a Ki in series [2] of 126 nM. Still for that read-out and setting: the same measure for `O=C(c1ccc2[nH]ccc2c1)N1CCC(N2C(=O)OCc3ccccc32)CC1`: 200 nM. In general, bioavailability refers to the share of a dose that reaches the circulation, judged against a reference dose that is usually intravenous. High values mean good availability, low ones poor availability. `CS(=O)(=O)N1CCC(c2cc3cc(C(=O)N4CCC(N5C(=O)OCc6ccccc65)CC4)ccc3o2)CC1`: the clearance in series [1] is 9 mL/min/kg. Moreover, the Ki in series [2] is 79.4 nM. Moreover, in series [3], the bioavailability was 69%.

For the compound `CN(CCn1ccc2cc(C(=O)N3CCC(N4C(=O)OCc5ccccc54)CC3)ccc21)S(C)(=O)=O`, in series [2], the Ki was 39.8 nM. In other words, the double-digit nanomolar range. On to `O=C(c1ccc2ncsc2c1)N1CCC(N2C(=O)OCc3ccccc32)CC1`, for which, in series [2], affinity was put at a Ki of 794 nM. This Ki is about 20-fold higher than that of the compound before.

In turn, `CC(=O)NCCc1cc2cc(C(=O)N3CCC(N4C(=O)OCc5ccccc54)CC3)ccc2o1` had a clearance in series [1] of 9 mL/min/kg. In series [2], this compound had a Ki of 39.8 nM. The same compound came in with a bioavailability in series [3] of 27%.

`O=C(CN1CCCC1=O)NCc1cc2cc(C(=O)N3CCC(N4C(=O)OCc5ccccc54)CC3)ccc2o1` gave a clearance in series [1] of 34 mL/min/kg. Moreover, the Ki in series [2] is 25.1 nM. Take `CC(=O)N1CCN(Cc2cc3cc(C(=O)N4CCC(N5C(=O)OCc6ccccc65)CC4)ccc3o2)CC1`: in series [1], the clearance came to 11 mL/min/kg. Further, the Ki in series [2] is 79.4 nM. Also, in series [3], the bioavailability amounted to 44%. As for `Cc1c(C)n(C[C@H]2CCCN2S(C)(=O)=O)c2ccc(C(=O)N3CCC(N4C(=O)OCc5ccccc54)CC3)cc12`, in series [2], the Ki is 398 nM.

With `O=C(c1ccc2occc2c1)N1CCC(N2C(=O)OCc3ccccc32)CC1`, the Ki in series [2] is 251 nM. `Cc1nc(-c2ccncc2)sc1C(=O)N1CCC(N2C(=O)OCc3ccccc32)CC1`: the affinity in series [2] corresponds to a Ki of 126 nM. In turn, `CS(=O)(=O)N1CCN(Cc2cc3cc(C(=O)N4CCC(N5C(=O)OCc6ccccc65)CC4)ccc3o2)CC1` came in with a clearance in series [1] of 7 mL/min/kg. In series [2], this compound showed a Ki of 63.1 nM. In addition, the bioavailability in series [3] is 100%. Regarding `CC(=O)N1CCC[C@@H]1c1cc2cc(C(=O)N3CCC(N4C(=O)OCc5ccccc54)CC3)ccc2o1`, in series [1], the clearance was determined as 31 mL/min/kg. The Ki in series [2] is 25.1 nM. For `CC1(C)NC(=O)N(CC(=O)NCc2cc3cc(C(=O)N4CCC(N5C(=O)OCc6ccccc65)CC4)ccc3o2)C1=O`, in that order: 20 mL/min/kg and 15.8 nM. Turning to `O=C(c1ccc2ccoc2c1)N1CCC(N2C(=O)OCc3ccccc32)CC1`, affinity in series [2] was put at a Ki of 398 nM. `CN1CC(=O)N(CC(=O)NCc2cc3cc(C(=O)N4CCC(N5C(=O)OCc6ccccc65)CC4)ccc3o2)C1=O` gave a clearance in series [1] of 20 mL/min/kg. The Ki in series [2] is 3.16 nM. In series [2], `Cc1cc2cc(C(=O)N3CCC(N4C(=O)OCc5ccccc54)CC3)ccc2[nH]1` had a Ki of 126 nM.

For the compound `Cc1c[nH]c2ccc(C(=O)N3CCC(N4C(=O)OCc5ccccc54)CC3)cc12`, the affinity in series [2] corresponds to a Ki of 794 nM.

`CC(=O)N1CCC(c2cc3cc(C(=O)N4CCC(N5C(=O)OCc6ccccc65)CC4)ccc3o2)CC1` came in with a clearance in series [1] of 6 mL/min/kg. Also, the Ki in series [2] is 63.1 nM. In series [3], this compound yielded a bioavailability of 49%. For the compound `O=C(c1ccc2[nH]ccc2n1)N1CCC(N2C(=O)OCc3ccccc32)CC1`, the Ki in series [2] is 794 nM. This counts as sub-micromolar. Still for that read-out and setting: the same measure for `CN(CCCn1ccc2cc(C(=O)N3CCC(N4C(=O)OCc5ccccc54)CC3)ccc21)S(C)(=O)=O`: 158 nM; for `CS(=O)(=O)NCCn1ccc2cc(C(=O)N3CCC(N4C(=O)OCc5ccccc54)CC3)ccc21`: 316 nM. In series [1], `O=C(CN1C(=O)CNC1=O)NCc1cc2cc(C(=O)N3CCC(N4C(=O)OCc5ccccc54)CC3)ccc2o1` gave a clearance of 17 mL/min/kg. In addition, in series [2], the Ki is 6.31 nM. The same compound registered a bioavailability in series [3] of 8%. `CS(=O)(=O)N1CCC[C@H]1Cn1ccc2cc(C(=O)N3CCC(N4C(=O)OCc5ccccc54)CC3)ccc21` gave a Ki in series [4] of 126 nM.

Turning to `CC(=O)N1CCCC(c2cc3cc(C(=O)N4CCC(N5C(=O)OCc6ccccc65)CC4)ccc3o2)C1` (centres undefined), the Ki in series [2] was 200 nM.

On to `Cc1cc(C(=O)N2CCC(N3C(=O)OCc4ccccc43)CC2)cc2ccn(C[C@H]3CCCN3S(C)(=O)=O)c12`, for which affinity in series [2] was put at a Ki of 10 nM. The same measure, in the same setting: the same measure for `CS(=O)(=O)N1CCC[C@@H]1Cn1ccc2cc(C(=O)N3CCC(N4C(=O)OCc5ccccc54)CC3)ccc21`: 20 nM; for `O=C(c1ccc2cc[nH]c2c1)N1CCC(N2C(=O)OCc3ccccc32)CC1`: 200 nM. In series [1], `CC(=O)NCC(=O)NCc1cc2cc(C(=O)N3CCC(N4C(=O)OCc5ccccc54)CC3)ccc2o1` gave a clearance of 18 mL/min/kg. For the same compound, the Ki in series [2] is 15.8 nM. Further, the bioavailability in series [3] worked out at 16%. In series [2], `CC1OC(=O)N(CC(=O)NCc2cc3cc(C(=O)N4CCC(N5C(=O)OCc6ccccc65)CC4)ccc3o2)C1=O` (centres undefined) showed a Ki of 25.1 nM. On the same count and under the same terms, the same measure for `CC(=O)N1CCC[C@@H]1Cn1ccc2cc(C(=O)N3CCC(N4C(=O)OCc5ccccc54)CC3)ccc21`: 158 nM. On the same count and under the same terms, the same measure for `CS(=O)(=O)N1CCC[C@@H]1Cc1coc2cc(C(=O)N3CCC(N4C(=O)OCc5ccccc54)CC3)ccc12`: 200 nM.

In series [2], `CC(=O)NCCn1ccc2cc(C(=O)N3CCC(N4C(=O)OCc5ccccc54)CC3)ccc21` gave a Ki of 398 nM. Compound `CN(Cc1cc2cc(C(=O)N3CCC(N4C(=O)OCc5ccccc54)CC3)ccc2o1)C(=O)CN1C(=O)CNC1=O` returned a clearance in series [1] of 15 mL/min/kg. In addition, affinity in series [2] was put at a Ki of 25.1 nM. The compound also yielded a bioavailability in series [3] of 12%.

Compound `CC(=O)N(C)CCn1ccc2cc(C(=O)N3CCC(N4C(=O)OCc5ccccc54)CC3)ccc21` gave a Ki in series [2] of 63.1 nM.
